Test results as given in patent US20200138927A1, “NON-CROSS-LINKED […] […] […] FOR USE IN C[…]” (GlaxoSmithKline Biologicals SA, priority 2012, published 2020).
In brackets after ≈: the same amount, converted by molar mass.

Key:
Solubility in water = type: physicochemical
[1] = Adsorption to aluminium hydroxide; type: physicochemical

In the case of `Cc1ccc2c(c1)nc(N)c1ncc(CCc3ccc(OCCOCCOCCC(F)(F)P(=O)(O)O)cc3C)cc12` [Compound K1], the solubility (Solubility in water) is reported as about 4000 µg/mL (≈ 6.78 mM) and the “adsorption to aluminium hydroxide” value [1] is reported as “adsorbs well”.
